According to patent publication US20180244653A1, “SELECTIVE ALPHA-7 NICOTINIC RECEPTOR AGONISTS AND METHODS FOR MAKING AND USING THEM” (THE REGENTS OF THE UNIVERSITY OF CALIFORNIA, priority 2015, published 2018):
“And” between values parts separate entries of the source, which are not always exact repeats. Equal entries are not always repeated. “Also recorded” adds a separate entry of the source. Where two headings read alike, the source gives them in different places.

Columns and labels:
[1] = system: physiologically induced amnesia mice; assay: ORT with 24 h time delay (natural memory loss); type: in vivo; conditions: i.p.; for Discrimination index / cognition enhancement, ORT time delay vs control group: 24 h delay; for Minimum effective dose, RT^§: physiologically induced amnesia (memory retention) model, ICR mice
Procedure: Both compounds were further evaluated on a physiologic amnesic model by using ORT with 24 h time delay to induce natural memory loss in mice. The appropriate time delay causing amnesia was initially selected by varying delay times (24, 48, and 72 h) between sample and test phase that have identical and different objects, respectively. […] Therefore, 24 h was used as the time delay between sample and test phase.
FIG. 27 illustrates exploration time to familiar (F) and novel (N) objects in test phase of ORT following a time delay. Each mouse was allowed to explore an open field apparatus for 5 min in a habituation phase one day before a sample phase. In the test day, vehicle (SH) and test compounds IND8, QND8 and PNU were injected 1 h before measurement of exploration time. Each mouse was allowed to explore 2 identical objects in the sample phase for 5 min. On the next day (24 h), one of the objects was changed to a new one and the mouse was allowed to explore these objects for 5 min. The exploration time of these objects was recorded. Data are presented as means±SE, n=6-8 mice/group. **p<0.01, ***p<0.001 vs exploration time of familiar object, paired student's t-test.
The DI was calculated and compared with the control group to evaluate IND8, QND8, and PNU-282987 enhancement of cognitive function. Data are shown in FIG. 28, which illustrates discrimination index (TN−TF/TN+TF) of each compound in the test phase of ORT with time delay protocol. There was a significant difference in DI (F6,43=6.097, p<0.001, n=6-8 mice/group). **p<0.01, ***p<0.001 vs vehicle group (SH), one-way ANOVA with Fisher's LSD post hoc comparison.
The apparatus used in this experiment was the same as ORT test. This experiment was divided into 2 parts directed to dose finding and establishing mechanism of action.
(§1) For dose finding protocol, the mice were randomly divided into different treatment groups, a control group receiving a vehicle and tested groups receiving PNU-282987 at 3, 10 mg/kg, and IND8, QND8 for 10, 25 μmol/kg, single dose. They were allowed to freely explore the open field apparatus for 5 min for habituation in a day before the experiment (day 1). On the test day (day 2), the test compound was injected 1 h before the sample phase. In this phase, mice were placed in the apparatus to explore two identical objects. On the next day (day 3), one object was changed to a new one and mice were allowed to explore these objects for 5 min in the test phase. For proving cognitive enhancement mediated through α7-nAChRs, the protocol was the same as mentioned above except MLA (3 mg/kg), selective α7-nAChR antagonist, was injected 5 min before test compounds in the sample phase (day 2) to block the cognitive enhancement effect from test compounds. The dose of test compounds is selected from the effective dose from the former experiment. The exploration time of each object was recorded if the nose of mouse came within 3 cm or touched the objects. The discrimination index (DI) was calculated by using (TN−TF)/(TN+TF); TN and TF represented exploration time of new and familiar objects, respectively.

[2] = system: physiologically induced amnesia mice; assay: ORT time delay with MLA pretreatment (mechanism of action); type: in vivo; conditions: MLA 3 mg/kg 5 min before test compound 10 μmol/kg
Procedure: Methyllycaconitine (MLA) was injected to block the α7-nAChR agonist response. The ORT in natural memory loss mice described above was the study model. […] Each mouse was allowed to explore an open field apparatus for 5 min in a habituation phase. After 24 hours, MLA (3 mg/kg) was injected 5 min before injection of test compounds. After 1 h of injected test compounds, each mouse explored 2 identical objects in the sample phase for 5 min. On the next day, one of the objects was changed to a new one and the mouse was allowed to explore these objects for 5 min. The exploration time of these objects was recorded.
FIG. 30 illustrates discrimination index (TN−TF/TN+TF) of each compound in the test phase of ORT for proving mechanism of action.
as §1, with “For proving cognitive enhancement mediated through α7-nAChRs, the protocol was the same as mentioned above except MLA (3 mg/kg), selective α7-nAChR antagonist, was injected 5 min before test compounds in the sample phase (day 2) to block the cognitive enhancement effect from test compounds. The dose of test compounds is selected from the effective dose from the former experiment.” left out

5HT3A receptors = biological target: T1, 5HT3A receptors (Mus musculus, UniProt P23979); assay: Intact cell competitive radioligand binding assay ([3H]-granisetron, SPA), LGIC-CNiFERs; conditions: >10 = did not pass initial screen at 10 μM; read-out: Kd ± SD, 5HT3A
T1 construct: expressed in transfected cells; host or cells: HEK293 cells co-expressing TN-XXL
T1 sequence (P23979 24-489): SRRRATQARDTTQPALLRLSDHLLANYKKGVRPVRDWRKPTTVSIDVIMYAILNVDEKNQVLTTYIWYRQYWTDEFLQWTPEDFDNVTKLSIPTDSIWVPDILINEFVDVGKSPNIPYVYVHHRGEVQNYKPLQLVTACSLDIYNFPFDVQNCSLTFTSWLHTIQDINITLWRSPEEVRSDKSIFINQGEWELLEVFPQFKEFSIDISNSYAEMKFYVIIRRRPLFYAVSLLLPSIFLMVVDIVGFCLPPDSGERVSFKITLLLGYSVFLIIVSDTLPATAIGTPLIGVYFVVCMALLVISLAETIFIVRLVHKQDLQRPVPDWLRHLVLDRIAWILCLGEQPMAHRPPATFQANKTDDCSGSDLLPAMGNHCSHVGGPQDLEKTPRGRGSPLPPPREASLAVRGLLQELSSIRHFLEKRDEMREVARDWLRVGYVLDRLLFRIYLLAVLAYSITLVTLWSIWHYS

[3] = biological target: α7/5HT3A chimera receptor (hα7/m5HT3A), used for α7-nAChRs (UniProt P23979+P36544, M226I/T225I); assay: Intact cell competitive radioligand binding assay ([3H]-(±)-epibatidine, SPA), LGIC-CNiFERs; conditions: read-out: Kd ± SD, α7-nAChRs; >10 = did not pass initial screen at 10 μM
α4β2-nAChRs = biological target: T2, α4β2-nAChRs (Homo sapiens, UniProt P17787+P43681); assay: as above
T2 construct: expressed in transfected cells; host or cells: HEKtsA201 cells co-expressing TN-XXL

[4] = >10 = did not pass initial screen at 10 μM, read-out: Kd ± SD, α4β2

Row | Structure (SMILES) | Discrimination index / cognition enhancement, ORT time delay vs control group [1] | Minimum effective dose, RT^§ [1] [µmol/kg] | Cognitive enhancement after MLA pretreatment, ORT time delay [2] | Kd (5HT3A receptors) | Kd [3] | Initial screening for binding to α4β2-nAChRs (α4β2-nAChRs; 10 μM, more than 50% radioligand displacement) | Kd (α4β2-nAChRs; [4]) [nM] | Kd (α4β2-nAChRs) [nM]
1 | c1cc2cc(-c3cn(C4CN5CCC4CC5)nn3)ccc2[nH]1 (stereo not shown) [IND8, 5-((Quinuclid-3-yl)-1H-1,2,3-triazol-4-yl)-1H-indole] | able to enhance cognition; also recorded: significantly higher than that of control group | 10 | complete abolition of the cognitive enhancement; also recorded: abolished by MLA | 50 nM and 52 nM | 120 nM | binds to α4β2-nAChRs | 750 | 
2 | O=C(N[C@H]1CN2CCC1CC2)c1ccc(Cl)cc1 [PNU-282987, reference compound] | able to enhance cognition; also recorded: significantly higher than that of control group | 10 | abolished by MLA | > 10000 nM | 270 ± 140 nM |  |  | > 10000
3 | Oc1ccc(-c2cn(C3CN4CCC3CC4)nn2)cc1 (stereo not shown) [QND8, 3-(4-hydroxyphenyl-1,2,3-triazol-1-yl) quinuclidine] | able to enhance cognition; also recorded: significantly higher than that of control group | 10 | complete abolition of the cognitive enhancement; also recorded: abolished by MLA | 540 ± 50 nM | 80 nM and 81 nM |  | > 10000 | 
